What was measured:
[1] = molecular target: Histamine H3 receptor (Cavia porcellus, UniProt Q9JI35); experiment: Antagonist activity at histamine H3 receptor in guinea pig jejunum assessed as electrically evoked contractions; type: functional, tissue-based; settings: read-out: pA2 (converted)
[2] = molecular target: Histamine H1 receptor (Cavia porcellus, UniProt P31389); experiment: Antagonist activity at histamine H1 receptor in guinea pig ileum assessed as histamine-induced contractions; type: functional, tissue-based; settings: read-out: pA2 (converted)
Histamine H1 receptor, sequence (P31389 whole entry): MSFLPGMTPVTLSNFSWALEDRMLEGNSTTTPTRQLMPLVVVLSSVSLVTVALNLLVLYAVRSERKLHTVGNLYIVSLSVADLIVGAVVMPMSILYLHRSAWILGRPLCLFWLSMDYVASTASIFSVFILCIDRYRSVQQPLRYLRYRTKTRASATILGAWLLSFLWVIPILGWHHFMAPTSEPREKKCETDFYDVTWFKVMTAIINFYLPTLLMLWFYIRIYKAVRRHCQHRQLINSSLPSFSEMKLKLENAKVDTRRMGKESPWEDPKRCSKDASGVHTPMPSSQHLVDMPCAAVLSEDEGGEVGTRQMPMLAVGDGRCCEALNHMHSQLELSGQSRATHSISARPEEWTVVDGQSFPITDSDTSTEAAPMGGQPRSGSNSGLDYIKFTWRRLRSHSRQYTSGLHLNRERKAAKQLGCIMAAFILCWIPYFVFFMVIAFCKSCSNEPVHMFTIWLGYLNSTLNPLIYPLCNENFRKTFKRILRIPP

Histamine H3 receptor, sequence (Q9JI35 whole entry): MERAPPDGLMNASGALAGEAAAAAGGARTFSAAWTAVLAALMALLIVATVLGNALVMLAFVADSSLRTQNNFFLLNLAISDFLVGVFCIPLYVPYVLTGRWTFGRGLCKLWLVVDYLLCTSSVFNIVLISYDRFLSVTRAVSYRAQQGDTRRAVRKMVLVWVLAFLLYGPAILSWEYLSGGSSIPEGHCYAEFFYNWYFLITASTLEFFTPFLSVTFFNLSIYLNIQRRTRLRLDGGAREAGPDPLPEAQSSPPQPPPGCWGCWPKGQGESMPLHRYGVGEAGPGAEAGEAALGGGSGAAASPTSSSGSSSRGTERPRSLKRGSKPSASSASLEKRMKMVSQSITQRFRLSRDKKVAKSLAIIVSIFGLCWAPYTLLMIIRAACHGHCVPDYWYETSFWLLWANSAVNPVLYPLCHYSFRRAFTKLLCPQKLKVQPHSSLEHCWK

Structure (SMILES)	Kb [1] [nM]	Kb [2] [nM]
CCCN1CCN(c2nc3ccccc3s2)CC1	69.2	
CCCN1CCN(c2ncc(CCNC=O)s2)CC1	117	
C=CCN1CCN(c2nc3ccccc3s2)CC1	79.4	
S=C(NC1CCCCC1)N1CCC(c2cnc[nH]2)CC1 [THIOPERAMIDE]	0.871	
CCCN1CCN(c2nc3cnccc3o2)CC1	126	
CCCN1CCN(c2ncc(CCN(C)Cc3ccccc3)s2)CC1	17.4	> 100000
CCCN1CCN(c2ncc(CCN(C)CCCCCc3ccccc3)s2)CC1	56.2	
CCCN1CCN(c2nc3cnccc3[nH]2)CC1	56.2	
CCCN1CCN(c2ncc(CCN(C)CCCc3ccccc3)s2)CC1	5.37	> 100000

Second part, the compound after the results:

Kb [1] [nM]	Kb [2] [nM]	Structure (SMILES)
43.7		CCCN1CCN(c2ncc(CCN(C)C(=O)CC)s2)CC1
16.6	> 100000	CCCN1CCN(c2ncc(CCN(C)C)s2)CC1
95.5		CCCCC(=O)N(C)CCc1cnc(N2CCN(CCC)CC2)s1
29.5	> 100000	CCCN(C)CCc1cnc(N2CCN(CCC)CC2)s1
89.1		CCCCCN(C)CCc1cnc(N2CCN(CCC)CC2)s1
55		CCCN1CCN(c2ncc(CCN(C)C=O)s2)CC1
63.1		CCCN1CCN(c2ncc(CCNC)s2)CC1
64.6		CCCN1CCN(c2ncc(CCN)s2)CC1

From ChEMBL document CHEMBL1137723, “Non-imidazole histamine H3 ligands, part IV: SAR of 1-[2-thiazol-5-yl-(2-aminoethyl)]-4-n-propylpiperazine derivatives” (Eur J Med Chem, 2009)
